According to patent publication US20230255969A1, “TARGETING IMMUNE P[…] BY HIGHLY PATHOGENIC CORONAVIRUSES” (priority 2020, published 2023):

Test system: bone marrow derived mast cells (BMMCs)
Type: cell-based, C57Bl/6 mouse

O=C(O)c1cc(=O)c2c(OCC(O)COc3cccc4oc(C(=O)O)cc(=O)c34)cccc2o1 [cromolyn, 5-[3-(2-carboxy-4-oxochromen-5-yl)oxy-2-hydroxypropoxy]-4-oxochromene-2-carboxylic acid] was tested, and the “Mast cell degranulation in response to SARS-CoV-2 Spike protein (percentage degranulation)” value was “reduced”.
